The results in this text go back to BindingDB's records for patent US12331033 (Disarm Therapeutics, 2025).

Bounds are passed on as bounds.

The IC50 is the concentration that gives 50% inhibition. A lower IC50 goes with greater potency in that assay.

This assay addresses T1, NAD(+) hydrolase SARM1 (Homo sapiens, UniProt Q6SZW1).
T1 sequence (Q6SZW1 whole entry): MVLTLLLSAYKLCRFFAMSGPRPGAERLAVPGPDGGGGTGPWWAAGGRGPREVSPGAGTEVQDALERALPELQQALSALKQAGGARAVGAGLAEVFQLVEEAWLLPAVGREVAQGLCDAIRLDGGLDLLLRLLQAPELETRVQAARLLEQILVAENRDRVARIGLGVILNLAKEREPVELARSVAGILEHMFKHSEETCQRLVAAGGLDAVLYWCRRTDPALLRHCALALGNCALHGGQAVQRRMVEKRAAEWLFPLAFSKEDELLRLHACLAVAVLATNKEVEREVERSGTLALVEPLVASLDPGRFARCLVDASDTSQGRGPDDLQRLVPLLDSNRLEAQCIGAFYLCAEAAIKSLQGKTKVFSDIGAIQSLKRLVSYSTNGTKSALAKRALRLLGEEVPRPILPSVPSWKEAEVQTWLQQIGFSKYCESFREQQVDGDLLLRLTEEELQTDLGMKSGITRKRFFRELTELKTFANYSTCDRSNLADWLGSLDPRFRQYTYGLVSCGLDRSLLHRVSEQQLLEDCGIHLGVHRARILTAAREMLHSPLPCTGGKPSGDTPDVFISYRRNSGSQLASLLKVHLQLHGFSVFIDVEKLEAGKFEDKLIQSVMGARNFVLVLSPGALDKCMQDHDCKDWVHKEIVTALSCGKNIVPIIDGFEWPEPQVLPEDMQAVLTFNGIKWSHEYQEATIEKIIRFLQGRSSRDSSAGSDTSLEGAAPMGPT
The experiment in a line: ARM-SAM-TIR IC50 Assay. As for the experimental part: The enzymatic assay was performed in a 384-well polypropylene plate in Dulbecco's PBS buffer in a final assay volume of 20 μL. ARM-SAM-TIR lysate with a final concentration of 5 μg/mL was pre-incubated with the respective compound at 1% DMSO final assay concentration over 2 h at room temperature. The reaction was initiated by addition of 5 μM final assay concentration of NAD+ as substrate. After a 2 hr room temperature incubation, the reaction was terminated with 40 μL of stop solution of 7.5% trichloroactetic acid in acetonitrile. The NAD+ and ADPR concentrations were analyzed by a RapidFire High Throughput Mass Spectrometry System (Agilent Technologies, Santa Clara, Calif.) using an API4000 triple quadrupole mass spectrometer (AB Sciex Framingham, Mass.).

Consider `Cc1c(-c2ccncc2)n[nH]c1NC(=O)COc1ccc(Cl)c(F)c1` [US12331033, Example 291], for which the IC50 is < 5 µM.
